Measurements: patent publication US12419339B2, “Aerosolized formulation” (priority 2018, dated 2025)
Where two headings read alike, the source gives them in different places.

Type: physicochemical
Conditions: prior to aerosolization

Structure (SMILES) | liquid analysis, content (formulation containing 1-menthol (83.1% water, 15.0% 2-hydroxy-propyl-β-cyclodextrin, 0.9% 1-menthol, 1% nicotine)) | liquid analysis, content (formulation containing 1-menthol) | liquid analysis, content (formulation containing vanillin)
CC1CCC(C(C)C)C(O)C1 (stereo not drawn) [1-menthol] | 0.8 % (w/w) | 8 mg/g | –
COc1cc(C=O)ccc1O [vanillin] | – | – | 5 mg/g
